Reference: patent US20060183221A1, “Method for neural differentiation of embryonic stem cells using protease passaging techniques” (priority 2003, published 2006)
“Also recorded” adds a separate entry of the source.

Tests used:
Oct4 = Oct4 expression by immunoblotting in EB8 stage ES cells incubated with S18; type: cell-based, mouse
Procedure: (§1) In vitro differentiating ES cells at stage EB8 were incubated for 24-48 hours with 75 μM S18, or 35 μM N-acyl sphingosine or other ceramide analogs. Protein was isolated from cells incubated with S18 for 24 hours and from untreated cells, separated by SDS-PAGE, and the expression of Oct4 was analyzed by immunoblotting.

[1] = test system: seeded sfEBMs derived from domed HESC colonies; experiment: S18 treatment of seeded serum free embryoid bodies (sfEBMs), cell death by morphology and DAPI staining; type: cell-based, human
Source text: sfEBMs were derived from domed HESC colonies, grown in suspension for 24 days with one passage, and seeded to polyornithine/laminin coated chamber slides in DMEM/F12, supplemented with 1×N2 (Gibco), and 1% FCS.
Apoptosis in seeded serum free embryoid bodies was monitored by morphological observation of cell death and DAPI staining to reveal apoptotic nuclei. Apoptotic nuclei were observed as obviously fragmented and degenerating nuclei, with small punctuate patterns of DAPI staining. Rosette regions from essentially serum free embryoid bodies in suspension were passaged further in the same medium, either withdrawing S18 or culturing the embryoid bodies for an additional 4 to 8 days in the presence of S18. Rosette regions were then seeded onto polyornithine/laminin coated slides for analysis of proliferation and differentiation to neural lineages.

[2] = test system: differentiating mouse ES cells (ES-J1); experiment: Apoptosis (TUNEL staining) in differentiating mouse ES cells incubated with ceramide analogs; type: cell-based; settings: for cell death: 20 hours with 75 μM S18; for TUNEL stained cells: 15 hours with 75 μM S16 or S18, or 35 μM C2-ceramide
Procedure: In vitro neural differentiation of mouse ES cells (ES-J1, ES-D3) followed a serum deprivation protocol as described previously (Hancock, et al., 2000, Biochem. Biophys. Res. Commun. 271: 418-421). The differentiation stages are outlined in FIG. 2. Briefly, ES cells were grown on gamma-irradiated feeder fibroblasts for four days in Knockout DMEM/15% Knockout serum replacement, supplemented with ESGRO (LIF; Chemicon; Cat No. ESG1106) at a concentration of […] medium. ES cells were then grown for another four days on gelatin-coated bacterial culture dishes without a fibroblast feeder layer, and were then grown for three days in Knockout DMEM/15% heat-inactivated ES qualified Fetal Bovine Serum, supplemented with 10^3 units LIF per ml of medium. Upon trypsinization, ES cells were transferred to bacterial culture dishes without gelatin, and embryoid body (EB) formation was induced for four days in Knockout DMEM/10% heat-inactivated ES qualified FBS without LIF (EB4 stage). On the fifth day, floating and loosely attached EBs were rinsed off and transferred to tissue culture dishes. The EBs were allowed to attach to the tissue culture dish surface by incubation for another 24 hours in Knockout DMEM with 10% heat-inactivated ES qualified fetal bovine serum. Neural differentiation due to serum deprivation was induced by cultivation of the EBs for three days in DMEM/F12 (50/50), supplemented with 1×N2 (Invitrogen/Life Technologies; Cat No. 17502, dilution of 1: 100) but without serum (EB8 stage). Serum-deprived EBs were then trypsinized, plated on poly-L-ornithine/laminin-coated tissue culture dishes and grown for four days in DMEM/F12 (50/50), supplemented with N2 and 10 ng/ml FGF-2, but without serum. his incubation period is referred to as neuroprogenitor (NP) stage due to commitment of neuroepithelial precursor cells to neuroprogenitor cells. These cells have committed during the EB stages and were expanded during the NP stage. NPs grown for 48 hours upon replating of trypsinized EBs were referred to as the NP2 stage. On the fifth day of NP formation, the medium was changed to Neurobasal (Invitrogen/Life Technologies; Cat No. 21103-049), with 5% heat-inactivated FBS, and the cells were incubated for another seven days. During this time, NPs fully differentiate to glial cells and neurons. Cells cultured for 24 hours or 96 hours upon changing the medium were referred to as the D1 or D4 stage, respectively.
ES cells were cultured and differentiated to the EB4, EB8, NP2, or D4 stage following the protocol as described above. The ceramide analog S18 was dissolved in ethanol at a concentration of 100 mM and then added to the cells at a final concentration of 75 μM in medium. The cells at the EB8 stage were incubated for 48 hours in the presence of the ceramide analog and were then transplanted into mouse brains.
Differentiating ES cells were grown on cover slips and fixed with 4% paraformaldehyde in phosphate-buffered saline (PBS). Fixed cells were permeabilized with 0.5% Triton X-100 in PBS for 5 minutes at room temperature and unspecific binding sites were saturated by incubation with 3% ovalbumin in PBS for 1 hour at 37° C. The cover slips were then incubated with 5 μg/ml primary antibody (anti-ceramide clone 15B4 mouse IgM, Alexis; anti-PAR-4 rabbit IgG, Santa Cruz; anti-PCNA rabbit IgG, Santa Cruz; anti-nestin clone 401 rat IgG, BD Pharmingen) in 0.1% ovalbumin/PBS, followed by incubation with the appropriate fluorescence-labeled secondary antibody (5 μg/ml Alexa 546 conjugated anti-mouse IgG, Molecular Probes; Alexa 488 conjugated anti-rabbit IgG, Molecular Probes, Cy3 conjugated anti-mouse IgM, Jackson) for 2 hours at 37° C. The nuclei were stained by treatment with 2 μg/ml Hoechst 33258 in PBS for 30 minutes at room temperature. Apoptotic nuclei were stained using the fluorescein FragEL TUNEL assay (Oncogene) according to the manufacturer's instructions. […]

EB8-derived cells = experiment: Injection of ceramide analog treated EB8-derived stem cells into mouse brains, teratoma formation; type: in vivo; settings: EB8-derived cells treated with 75 μM S18 for 24-48 hours, injected into brain of 8-10 day old C57BL6 mice, analysed after 7-21 days
Procedure: as §1
Prior to injection into the mouse brain, ES cells were labeled with Vybrant-DiI (rhodamine fluorescence) for permanent vital staining and were mixed with India ink in order to track the injection channel and cell migration/tissue integration. 1×10^4 of the untreated ES-J1 cells were injected, while 2×10^4 of the S18-treated cells were injected in order to control for the percentage of cells lost to apoptosis. The ES cells were injected into the right brain hemisphere (bregma −1.5 mm, 1 mm lateral of central suture, 2.0 mm deep) of 8-10 day old C57BL6 mice using a Hamilton syringe. After 7-21 days, the mice were sacrificed, the brain isolated and fixed with 10% PBS-buffered formalin. The brains were Vibratome sectioned at 100 μm. The distribution of the injected cells was determined by fluorescence microscopy.

CCCCCCCC/C=C\CCCCCCCC(=O)NC(CO)CO [S18, N-(2-hydroxy-1-(hydroxymethyl)ethyl)-oleoylamide]
Oct4 protein level by immunoblot relative to untreated control cells (Oct4; 75 μM S18 for 24 hours, SDS-PAGE immunoblot): 25% | decrease in Oct4 protein levels (Oct4; after treatment with S18): 75% | time until the effect was observed ([1]; 6, 8 or 10 μM S18): ≤ 24 h | effect on neural rosette structures ([1]; 6, 8 or 10 μM S18 for 36 hours): did not appear to be adversely affected | induction of apoptosis in the culture ([1]; 6, 8 or 10 μM S18 for 36 hours): induced apoptosis of a large proportion of the culture | cell death ([1]; 36 hours exposure to 6 μM S18): a high proportion of cells within these cultures have been killed | cell death ([1]; 36 hours exposure to 8 μM S18): a high degree of cell death is apparent | cell death ([2]; EB8 and NP2 stages): high degree of cell death | TUNEL stained cells ([2]; EB8 stage): 45±10% | TUNEL stained cells ([2]; NP2 stage): 70±10% | cell death ([2]; differentiated neurons): unaffected | teratoma formation (EB8-derived cells): No teratomas were detected; also recorded: did not show the formation of teratomas
